# Results published in PMC4815908 (Bioorganic & medicinal chemistry letters, 2015).
# Tested on: P. falciparum 3D7 (chloroquine-sensitive)
# Test: in vitro growth inhibition assay, P. falciparum 3D7
# Format: cell-based
# Conditions: Plasmodium falciparum, 3D7, read-out: IC50 ± SEM 3D7
structure (smiles),measurement,value
"[C-]#[N+]C(C)(C)C[C@@H]1C[C@H](C)[C@H]2CC[C@H](C)[C@@]3([N+]#[C-])CCC(=C)[C@@H]1[C@H]23 [compound 1, (−)-8,15-diisocyano-11(20)-amphilectene]",IC50,1.2 nM
